Experimental data published in patent US20090232919A1 (priority 2006, published 2009).
Marks after values point to notes of the source that are not given here.

What was measured:
Type in all cases: in vivo, Male Sprague-Dawley rats
[1] = tested on: Acetaminophen-Induced Liver Injury in Rat Model; experiment: Orally administrated extract and compound on acetaminophen-induced liver injury in rat model; conditions: for increased activity of blood ALT induced by acetaminophen / increased activity of blood LDH induced by acetaminophen: once a day for 4 days; for central necrosis and inflammation of liver (histo-pathological examination): oral, acetaminophen-induced, FIG. 3
Description: (§1) Male Sprague-Dawley rats (Samtako Co. Korea) weighing 140-160 g were used in the experiment and were allowed to access to feed (Harlan, teklan, USA) and drinking water. All animals were maintained in a controlled environment with temperatures at 22±2° C. and humidity at 55±5% with 12 hours of light and dark cycles for at least one week prior to use.
24 hours after the end of treatment, the acetaminophen solution prepared in Reference Example (1.2 g/kg) was orally administrated into the rats to induce hepatotoxicity.
24 hours after the treatment, the abdominal cavity was excised to deliver liver organ and blood to test the effect of the inventive extract and compound obtained in Examples on liver injury.
The effect on the indicators of liver injury known in the art, i.e., ALT (R. Rej, Clin. Chem., 24, pp 1971-1979, 1978) and LDH (S. Sherlock et al., Blackwell Science, London, p 23, 2002) activity in rat blood was determined.
The histo-pathological examination on liver organ was performed to determine the effect of inventive extract and compound on the necrosis and inflammation of liver induced by acetaminophen.

[2] = tested on: acetaminophen-induced hepatotoxicity in rats; experiment: Treating effect on liver injury (dosing after acetaminophen); conditions: 50 mg/kg orally from 1 hour after acetaminophen, versus PEG400 (40%) negative control; FIG. 7
Description: as §1
The acetaminophen solution prepared in Reference Example (1.2 g/kg) was orally administrated into the rats to induce hepatotoxicity. […] All the testing rats had been starved for 24 hours prior to acetaminophen-administration.
24 hours after the inducement, the abdominal cavity was excised to deliver liver organ to test the effect of the inventive compound obtained in Examples on liver injury.

[3] = tested on: GSH-Depleted Liver Injury in Rat Model; experiment: Effect on GSH-depleted (BSO) acetaminophen liver injury in rat model; conditions: for necrosis of hepatic cell: orally administrated
Description: as §1
3 hours after the end of treatment, 2 mM/kg of BSO (buthionine sulfoximine) was intraperitoneally administrated to the rats to deplete GSH (glutathione) level of the rats. 1 hr after the treatment, the acetaminophen solution prepared in Reference Example (1.2 g/kg) was orally administrated into the rats to induce hepatotoxicity.
24 hours after the inducement, the survival rate of the rats was determined and the abdominal cavity was excised to deliver liver organ to test the effect of the inventive extract and compound obtained in Examples on liver injury.

[4] = tested on: Acetaminophen-Induced Liver Injury in Rat Model; experiment: Intravenously administrated extract and compound on acetaminophen-induced liver injury in rat model
Description: as §1
3 hours after the end of treatment, the acetaminophen solution prepared in Reference Example (1.2 g/kg) was orally administrated into the rats to induce hepatotoxicity.
24 hours after the inducement, the abdominal cavity was excised to deliver liver organ and blood to test the effect of the inventive extract and compound obtained in Examples on liver injury.

[5] = oral dose of 25 mg/kg and 50 mg/kg, FIG. 1
[6] = GSH-depleted (BSO) + acetaminophen, FIG. 6b
[7] = intravenous dose of 5 mg/kg and 15 mg/kg, FIG. 4
[8] = oral dose of 50 mg/kg and 100 mg/kg

## O=C1C[C@@H](c2ccc(O)cc2)Oc2cc(O)ccc21 [LQ, liquiritigenin]
[1]; APAP, 50 mg/kg, p.o, n = 10
  Central vein neighboring cell necrosis (N): 0.8 ± 0.8
  Hepatic cell degeneration (HD) Central Vein (CV): 0.8 ± 0.8
  Hepatic cell degeneration (HD) Limbic region: 0.2 ± 0.2
  Hepatic cell degeneration (HD) Middle Region: 0.6 ± 0.6
  Inflammatory cell: 0^##
[1]; [5]
  increased activity of blood ALT induced by acetaminophen: significantly reduced
  increased activity of blood LDH induced by acetaminophen: significantly reduced
[1]
  central necrosis and inflammation of liver (histo-pathological examination): strikingly reduced
[2]
  necrosis of hepatic cell: more strikingly inhibited
[3]; APAP + BSO, 15 mg/kg,i.v.
  Hepatic cell degeneration (HD) Central Vein (CV): 0.2 ± 0.2
  Hepatic cell degeneration (HD) Limbic region: 2 ± 0.03
  Hepatic cell degeneration (HD) Middle Region: 0.2 ± 0.2
[3]; APAP + BSO, 50 mg/kg, p.o
  Hepatic cell degeneration (HD) Central Vein (CV): 1.5 ± 0.5
  Hepatic cell degeneration (HD) Limbic region: 1.5 ± 0.5
  Hepatic cell degeneration (HD) Middle Region: 1.5 ± 0.5
  Inflammatory cell: 0
[3]; GSH-depleted (BSO) + acetaminophen, versus 26.7% without treatment
  survival rate: strikingly increased
[3]; intravenously administrated for 2 days, GSH-depleted, FIG. 6b
  hepatic injury: apparently inhibits
[3]; [6]
  necrosis of hepatic cell: strikingly reduced
[4]; APAP, 5 mg/kg, i. v
  Central vein neighboring cell necrosis (N): 0.2 ± 0.2
  Hepatic cell degeneration (HD) Central Vein (CV): 0.8 ± 0.4
  Hepatic cell degeneration (HD) Limbic region: 0
  Hepatic cell degeneration (HD) Middle Region: 0.6 ± 0.4
  Inflammatory cell: 0
[4]; [7]
  increased activity of blood ALT induced by acetaminophen: significantly reduced
  increased activity of blood LDH induced by acetaminophen: significantly reduced
[4]; intravenously administrated, FIG. 5
  central necrosis and inflammation of liver: strikingly reduced

## COC(=O)c1cc(OC)c2c(c1-c1c(C(=O)OC)cc(OC)c3c1OCO3)OCO2 [DDB, dimethyl-4,4′-dimethoxy-5,6,5′,6′-dimethylene dioxybiphenyl-2,2′-dicarboxylate]
[1]; APAP, 50 mg/kg, p.o, n = 10
  Central vein neighboring cell necrosis (N): 2.38 ± 0.5^
  Hepatic cell degeneration (HD) Central Vein (CV): 0.4 ± 0.2
  Hepatic cell degeneration (HD) Limbic region: 0
  Hepatic cell degeneration (HD) Middle Region: 0.2 ± 0.2
  Inflammatory cell: 0^##
  Survival ratio (%): 100%
[1]; [8]
  increased activity of blood ALT induced by acetaminophen: strikingly reduce
  increased activity of blood LDH induced by acetaminophen: strikingly reduce
[1]
  central necrosis and inflammation of liver (histo-pathological examination): reduced little
[3]; [6]
  necrosis of hepatic cell: could not reduce
